The text below walks through data of patent publication US20180312493A1, “Antibiotic Compounds, Pharmaceutical Formulations Thereof And Methods And Uses Therefor” (Simon Fraser University, priority 2015, published 2018).

The target of one assay is T1, MRSA Pyk (Staphylococcus aureus, UniProt Q6GG09).
T1 construct: made in house; host or cells: E. coli BL-21 (DE3)
Description: MRSA pyruvate kinase (PK) activity, continuous LDH-coupled assay. The assay is classed as biochemical, methicillin resistant S. aureus (MRSA252). From the text:
Genomic DNA of MRSA strain Sanger 252 extracted using DNeasy Tissue Kit™ (Qiagen™) was used as a template to generate the His-tagged MRSA PK. Human cDNA from MCF-7 breast cancer cell line (courtesy of Dr. J Wong, BC Cancer Research Center (Vancouver, Canada)) was used as a template to generate the full-length human M2 PK enzyme. The following primer sets were used creating appropriate restriction sites (NdeI and XhoI sites underlined): For cloning of MRSA PK: M27F 5′-[…]-3′ and M27R 5′-[…]-3′, for cloning of human M2 PK isoform: hM2F 5′-[…]-3′ and hM2R 5′-[…]-3′. The resulting PCR fragments for each construct were cloned into the NdeI and XhoI unique sites of the bacterial expression vector pET-28a (+) (Novagen™). […] The sequence and the correct reading frame of all constructs were verified by sequencing. Human M1, R and L PK constructs in pET-28-a(+) vectors (courtesy of Dr. L. Cantley, Harvard Medical, School (Boston, USA)) were used to generate relevant recombinant His-tagged human PK isoforms.
MRSA and human constructs in pET-28a(+) were used to express relevant recombinant PK proteins in E. coli BL-21 (DE3). The proteins were expressed and purified using Ni-NTA agarose (Qiagen™) according to the manufacturer's protocol. Briefly, cells were grown to an absorbance of 0.4-0.5 at 600 nm in 2×YT medium, then induced with 0.1 mM IPTG for 3 h at 20° C. Cells were lysed by sonication on ice (3×10-s bursts with a 30-s recovery between bursts) in lysis buffer (0.2 mg/ml lysozyme, 50 mM Tris pH 7.5, 10 mM MgCl2, 200 mM NaCl, 100 mM KCl, 10% glycerol, 10 mM imidazole, 0.5% NP-40 and 1 mM DTT containing Complete™ protease inhibitor). Cell lysates were cleared by centrifugation (18,000×g in a Beckman™ JA-20 rotor) for 20 min at 4° C. and PK isoforms were purified by batch binding to Ni-NTA resin. The resins were then packed in columns (1×2 cm) and washed with 400 column volumes lysis buffer containing 30 mM imidazole. His-tagged PK isoforms were eluted with the same buffer containing 300 mM imidazole. The proteins were dialyzed overnight at 4° C. against 2000 volumes of ice-cold 30 mM Tris pH 7.5, 25 mM KCl, 5 mM MgCl2, 10% glycerol and 1 mM DTT to remove imidazole. All purification steps were done at 4° C.; enzymes were flash-frozen and stored at −70° C. Enzymatic activity of frozen protein preparations was stable for at least 10 months and up to 5 freeze/thaw cycles. Purity and physical integrity of proteins were assessed using SDS-polyacrylamide gel electrophoresis (SDS-PAGE) followed by coomassie blue staining. Protein concentration was estimated by Bradford assay (Bio-Rad Protein Assay™) using bovine serum albumin as a standard.
Candidate MRSA PK inhibitors were assayed for their ability to inhibit enzymatic activities of MRSA and human PKs. PK activity was determined using a continuous assay coupled to lactate dehydrogenase (LDH) in which the change in absorbance at 340 nm owing to oxidation of NADH was measured using a Benchmark Plus™ microplate spectrophotometer (Bio-Rad Laboratories, Hercules, Calif.). […] Reactions were initiated by the addition of 15 nM of one of the PK enzymes. PK activity proportional to the rate of change at 340 nm was expressed as specific activity (μmol/min/mg), which is defined as the amount of PK that catalyzes the formation of one micromole of either product per minute. Inhibitors were dissolved in DMSO with the final concentration of the solvent never exceeding 1% of the assay volume. IC50 values were calculated by curve fitting on a four-parameter dose-response model with variable slope using Graphpad Prism 5.0™ (GraphPad™ Software Inc., La Jolla, Calif.). In all studies, less than 10% of total PEP was exhausted during the reaction. Reactions were performed at 30° C. for up to 5 min. All values determined represent at least two measurements, in triplicate (Tables 1-6) or duplicate unless mentioned otherwise. […]

For another assay, the system named is S. aureus (ATCC29213). The assay is described as follows: In vitro susceptibility, broth microdilution (MIC). The assay is classed as cell-based. As to conditions: Staphylococcus aureus; S. aureus ATCC29213; 18-24 h, 37 C; read-out: Antimicrobial activity (MIC) S. aureus ATCC29213. The text has this: Epidemic methicillin resistant S. aureus (MRSA) strain sequenced at the Sanger Centre (MRSA252, NRS71) was obtained from NARSA (Network on Antimicrobial Resistance in S. aureus). Methicillin sensitive S. aureus (ATCC 29213 and 25923), methicillin resistant S. aureus (ATCC BAA-1762), and Salmonella typhimurium (ATCC BAA-185) were obtained from ATCC, The Global Bioresource Center. Acinetobacter baumannii (ATCC 19606 and ATCC 17978), Klebsiella pneumonia (C238), vancomycin resistant Enterococci #2 (2010A) (VRE#2), MRSA (USA400, MW2) and Pseudomonas aeruginosa (PA0-1) were obtained from the laboratory of Dr B. B. Finlay at the University of British Columbia (Vancouver, Canada).
The antimicrobial activities of PK inhibitor candidates were determined using the 96-well microtiter standard 2-fold serial broth microdilution method as described by CLSI (formerly NCCLS) with the various gram-positive and gram-negative bacteria species mentioned above. Bacteria from a single colony were grown, overnight in either BHI Broth (VRE), mueller hinton broth (S. aureus 29213; MRSA USA400, A. baumannii 19606, MRSA BAA-1762) or L-broth (P. aeruginosa, S. typhimurium, K. pneumonia and A. baumannii 17978). […] Culture plates were incubated for 18-24 h at 37° C., and optical density at 600 nm (OD600) was measured using a Benchmark Plus™ microplate spectrophotometer (Bio-Rad™). The absorbance control values for the series containing CAMHB and inhibitor were subtracted as background from the corresponding infected wells. Minimal inhibitory concentration (MIC) was defined as the lowest concentration of test compound leading to complete inhibition of cell growth in relation to compound-free control wells as determined by optical density. Vancomycin, methicillin and ciprofloxicin were used as reference compounds. All assays were run in triplicate or duplicate. Experiments were replicated at least twice to verify reproducibility using the above conditions.

SMILES strings stand for the structures. pIC50: −log10 of the molar value. ≈ marks a conversion by molar mass, not a printed value.

T1 sequence (Q6GG09 whole entry): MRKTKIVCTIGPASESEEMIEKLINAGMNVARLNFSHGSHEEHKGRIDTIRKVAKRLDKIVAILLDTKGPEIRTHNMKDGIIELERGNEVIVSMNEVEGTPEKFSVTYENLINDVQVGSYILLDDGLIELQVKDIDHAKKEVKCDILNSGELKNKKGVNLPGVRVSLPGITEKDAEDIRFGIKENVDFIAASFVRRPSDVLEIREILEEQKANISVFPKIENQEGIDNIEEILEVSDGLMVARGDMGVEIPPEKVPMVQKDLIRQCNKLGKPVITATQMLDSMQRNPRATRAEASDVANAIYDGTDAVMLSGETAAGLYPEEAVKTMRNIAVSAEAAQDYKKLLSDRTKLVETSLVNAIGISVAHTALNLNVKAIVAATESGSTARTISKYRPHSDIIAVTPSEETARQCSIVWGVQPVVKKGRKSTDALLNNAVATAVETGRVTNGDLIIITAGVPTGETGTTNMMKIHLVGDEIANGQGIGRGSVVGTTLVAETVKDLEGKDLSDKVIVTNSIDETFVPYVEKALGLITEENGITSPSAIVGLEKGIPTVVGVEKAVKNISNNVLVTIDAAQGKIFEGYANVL

For `ON=C(c1c(/C=C/c2ccc(Cl)cc2)[nH]c2cc(Br)ccc12)C(F)(F)F` (racemic) [Compound 19, 1-(6-Bromo-2-(4-chlorostyryl)-1H-indol-3-yl)-2,2,2-trifluoroethanone Oxime], the pIC50 at MRSA Pyk is 6.00 to 7.00. The MIC in the assay with S. aureus (ATCC29213) was 0.5 µg/mL (≈ 1.13 µM). Consider `ON=C(c1c(CCc2ccc(Cl)cc2)[nH]c2cc(Br)ccc12)C(F)(F)F` (racemic) [Compound 46, 1-(6-Bromo-2-(4-chlorophenethyl)-1H-indol-3-yl)-2,2,2-trifluoroethanone Oxime], for which the pIC50 against MRSA Pyk is less than 6.00. Also, the MIC with S. aureus (ATCC29213) was 1 µg/mL (≈ 2.24 µM).

Molecule `O=C(c1c(/C=C/c2ccc(Cl)cc2)[nH]c2cc(Br)ccc12)C1CCOCC1` [Compound 1, (E)-(6-Bromo-2-(4-chlorostyryl)-1H-indol-3-yl)(tetrahydro-2H-pyran-4-yl)methanone] showed a pIC50 against MRSA Pyk greater than 7.00. In addition, in the assay with S. aureus (ATCC29213), the MIC is greater than 64 µg/mL. In the same order, the values of `O=C(c1c(/C=C/c2ccc(Cl)cc2)[nH]c2cc(Br)ccc12)C1CC1` [Compound 2, (E)-(6-Bromo-2-(4-chlorostyryl)-1H-indol-3-yl)(cyclopropyl)methanone] are greater than 7.00 and 2 µg/mL (≈ 4.99 µM). In turn, `O=C(c1ccccc1)c1c(/C=C/c2ccc(Cl)cc2)[nH]c2cc(Br)ccc12` [Compound 3, (E)-(6-Bromo-2-(4-chlorostyryl)-1H-indol-3-yl)(phenyl)methanone] had a negative-log IC50 (pIC50) against MRSA Pyk greater than 7.00. Besides, the MIC in the assay with S. aureus (ATCC29213) was found to be 16 µg/mL (≈ 36.6 µM). `O=C(c1c(CCc2ccc(Cl)cc2)[nH]c2cc(Br)ccc12)C1CCOCC1` [Compound 4, (6-Bromo-2-(4-chlorophenethyl)-1H-indol-3-yl)(tetrahydro-2H-pyran-4-yl)methanone] gave a pIC50 on MRSA Pyk greater than 7.00. Further, the MIC with S. aureus (ATCC29213) turned out to be 8 µg/mL (≈ 17.9 µM). In the case of `O=C(O)C(F)(F)C(F)(F)C(=O)c1c(/C=C/c2ccc(Cl)cc2)[nH]c2cc(Br)ccc12` [Compound 5, (E)-4-(6-Bromo-2-(4-chlorostyryl)-1H-indol-3-yl)-2,2,3,3-tetrafluoro-4-oxobutanoic Acid], on MRSA Pyk, the pIC50 is greater than 7.00. Besides, in the assay on S. aureus (ATCC29213), the MIC was 32 µg/mL (≈ 63.4 µM). `CN1CCN(CCC(=O)c2c(/C=C/c3cn4ccccc4n3)[nH]c3cc(Br)ccc23)CC1` [Compound 8, (E)-1-(6-Bromo-2-(2-(imidazo[1,2-a]pyridin-2-yl)vinyl)-1H-indol-3-yl)-3-(4-methylpiperazin-1-yl)propan-1-one] had a pIC50 at MRSA Pyk of 6.00 to 7.00. Further, in the assay with S. aureus (ATCC29213), the MIC was 64 µg/mL (≈ 130 µM). Taken in the same sequence, the figures for `CN(C)CCC(=O)c1c(/C=C/c2cn3ccccc3n2)[nH]c2cc(Br)ccc12` [Compound 9, (E)-1-(6-Bromo-2-(2-(imidazo[1,2-a]pyridin-2-yl)vinyl)-1H-indol-3-yl)-3-(dimethylamino)propan-1-one] were 6.00 to 7.00 and 32 µg/mL (≈ 73.2 µM).

At MRSA Pyk, `O=C(CCN1CCOCC1)c1c(/C=C/c2cn3ccccc3n2)[nH]c2cc(Br)ccc12` [Compound 10, (E)-1-(6-Bromo-2-(2-(imidazo[1,2-a]pyridin-2-yl)vinyl)-1H-indol-3-yl)-3-morpholinopropan-1-one] gave a pIC50 of 6.00 to 7.00. The MIC with S. aureus (ATCC29213) is greater than 64 µg/mL.

On to `OC(c1c(/C=C/c2ccc(Cl)cc2)[nH]c2cc(Br)ccc12)(C(F)(F)F)C(F)(F)F` [Compound 13, (E)-2-(6-Bromo-2-(4-chlorostyryl)-1H-indol-3-yl)-1,1,1,3,3,3-hexafluoropropan-2-ol], for which the pIC50 against MRSA Pyk was 6.00 to 7.00. In addition, the MIC with S. aureus (ATCC29213) turned out to be 1 µg/mL (≈ 2.01 µM). For the molecule `OC(c1c(CCc2ccc(Cl)cc2)[nH]c2cc(Br)ccc12)(C(F)(F)F)C(F)(F)F` [Compound 14, 2-(6-Bromo-2-(4-chlorophenethyl)-1H-indol-3-yl)-1,1,1,3,3,3-hexafluoropropan-2-ol], the pIC50 at MRSA Pyk was 6.00 to 7.00. Further, the MIC in the assay with S. aureus (ATCC29213) came out at 1 µg/mL (≈ 2 µM). At MRSA Pyk, `OC(c1c(/C=C/c2ccc(Cl)cc2)[nH]c2cc(Br)ccc12)C(F)(F)F` (stereo not drawn) [Compound 16, (E)-1-(6-Bromo-2-(4-chlorostyryl)-1H-indol-3-yl)-2,2,2-trifluoroethanol] had a pIC50 greater than 7.00. For the same molecule, the MIC in the assay with S. aureus (ATCC29213) stood at 1 µg/mL (≈ 2.32 µM). Take `OC(c1c(CCc2ccc(Cl)cc2)[nH]c2cc(Br)ccc12)C(F)(F)F` (stereo not drawn) [Compound 17]: the pIC50 against MRSA Pyk was 6.00 to 7.00. The MIC with S. aureus (ATCC29213) stood at 2 µg/mL (≈ 4.62 µM). On to `CC(O)(c1c(/C=C/c2ccc(Cl)cc2)[nH]c2cc(Br)ccc12)C(F)(F)F` (stereo not drawn) [Compound 18, (E)-2-(6-Bromo-2-(4-chlorostyryl)-1H-indol-3-yl)-1,1,1-trifluoropropan-2-ol], for which, on MRSA Pyk, the pIC50 is greater than 7.00. For the same molecule, the MIC in the assay on S. aureus (ATCC29213) was 1 µg/mL (≈ 2.25 µM).

With `CN(C)C(=O)c1c(/C=C/c2ccc(Cl)cc2)[nH]c2cc(Br)ccc12` [Compound 21, (E)-6-Bromo-2-(4-chlorostyryl)-N,N-dimethyl-1H-indole-3-carboxamide], on MRSA Pyk, the pIC50 was greater than 7.00. For the same molecule, the MIC with S. aureus (ATCC29213) is greater than 64 µg/mL. On MRSA Pyk, `O=C(c1c(/C=C/c2ccc(Cl)cc2)[nH]c2cc(Br)ccc12)N1CCOCC1` [Compound 22, (E)-(6-Bromo-2-(4-chlorostyryl)-1H-indol-3-yl)(morpholino)methanone] had a pIC50 greater than 7.00. Also, the MIC with S. aureus (ATCC29213) was greater than 64 µg/mL. Turning to `CN(C)CCN(C)C(=O)c1c(/C=C/c2ccc(Cl)cc2)[nH]c2cc(Br)ccc12` [Compound 24, (E)-6-Bromo-2-(4-chlorostyryl)-N-(2-(dimethylamino)ethyl)-N-methyl-1H-indole-3-carboxamide], the pIC50 at MRSA Pyk is 6.00 to 7.00. In the assay with S. aureus (ATCC29213), the MIC is greater than 64 µg/mL.

In turn, `O=C(c1c(/C=C/c2ccc(Cl)cc2)[nH]c2cc(Br)ccc12)N1CCNCC1` [Compound 25, (E)-(6-Bromo-2-(4-chlorostyryl)-1H-indol-3-yl)(piperazin-1-yl)methanone] had a pIC50 against MRSA Pyk of 6.00 to 7.00. Further, in the assay with S. aureus (ATCC29213), the MIC is 8 µg/mL (≈ 18 µM). `O=C(NCCCO)c1c(-c2cc3cc(Cl)ccc3[nH]2)[nH]c2cc(Br)ccc12` [Compound 133, 6-Bromo-5′-chloro-N-(3-hydroxypropyl)-1H,1′H-[2,2′-biindole]-3-carboxamide] showed a pIC50 at MRSA Pyk greater than 7.00.
